Assay in all cases: NCI tumour cell line growth inhibition, 48 h
Assay [1] relates to U251 CNS.
Assay [2] has as its system OVCAR-3 ovarian.
Assay [3] deals with PC-3 prostate.
In assay [4] the test system is NCI-H460 lung.
Assay [5] concerns MOLT-4 leukemia.
Assay [6] relates to 786-0 renal.
Assay [7] has as its system KM12 colon.
In assay [8] the test system is RXF 393 renal.
Assay [9] relates to CAKI-1 renal.
In assay [10] the test system is TK-10 renal.

Values joined by “and” are separate entries in the source; they are usually repeats but may differ in a detail not shown here. Identical values can stand only once.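 Where inhibition never reached the appropriate level, the endpoint shown equals the highest concentration tested. Otherwise, values were interpolated linearly from a five-concentration, 48-hour dose response in 96-well plates. GI50: concentration for 50% inhibition of growth. Definition used: TGI = concentration required for complete inhibition of growth.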 Bounds are passed on as bounds.

`Fc1ccc(Nc2ccc3cc(OCCCN4CCOCC4)ccc3n2)cc1F`: the GI50 in assay [1] was 2.92 µM; in assay [2], 7.03 µM; in assay [3], 4.29 µM; in assay [4] it was 2.93 µM; in assay [5], 3.45 µM; in assay [6], 2.15 µM. The GI50 was 2.06 µM in assay [7], 2.45 µM in [8] and 3.71 µM in assay [9]. Moreover, the TGI in [1] was 7.79 µM; in assay [2], greater than 100 µM; in assay [3], 50 µM; in assay [4], 8.74 µM; in [5], greater than 100 µM; in assay [6], 4.68 µM. Also, the results for the TGI in [7], in [8] and in assay [9] were 5.48 µM, 7.32 µM and 25.6 µM, respectively.
For `N#Cc1c(N)nc(N2CCOCC2)c(C#N)c1-c1cccc(O)c1`, the GI50 in assay [1] is greater than 100 µM; in assay [2], 61.9 µM; in [3], 46.9 µM; in assay [4], 93.2 µM; in [5], greater than 100 µM; in [6] it was greater than 100 µM. Also, the figures for the GI50 in assay [8] and in assay [9] were 38.1 µM and greater than 100 µM, respectively. Moreover, the TGI in assay [1], in [2], in [3], in assay [4], in [5] and in assay [6] was greater than 100 µM each time. The TGI in [8] is 95.1 µM; in assay [9], greater than 100 µM.
As to `Cc1cc(S(=O)(=O)/N=C(\N)n2nc(C)c(C)c2C)c(SCc2ccccc2)cc1Cl`, the GI50 in [1] was 7.47 µM; in [2], 46.4 µM; in [3] it was 6.04 µM; in assay [4] it was 6.57 µM; in assay [10] it was greater than 100 µM; in assay [5], 3.52 µM. Besides, the GI50 in assay [6] is greater than 100 µM; in assay [7] it was 9.47 µM; in assay [8] it was 58.6 µM. Also, the TGI in assay [1], in assay [2], in assay [3], in assay [4], in assay [10] and in assay [5] was greater than 100 µM throughout. In addition, the TGI in assay [6], in [7] and in assay [8] was greater than 100 µM each time.
As to `Cc1cc2c(cc1C)[n+](=O)c(C(=O)c1cccs1)c(C(F)(F)F)n2[O-]`, the GI50 in assay [1] is 6.83 µM and 3.96 µM; in assay [2], 1.44 µM and 0.744 µM; in [3] it was 0.827 µM and 7.09 µM; in assay [4] it was 1.19 µM and 1.86 µM; in [5] it was 4.39 µM; in [6], 23 µM and 6.76 µM. Besides, the GI50 was 5.38 µM and 10.3 µM in assay [7]; 19.7 µM and 9.21 µM in [8]; 2.32 µM and 2.48 µM in assay [9]. In addition, the TGI is 25.5 µM and 75.8 µM in assay [1]; 9.78 µM and 4.34 µM in [2]; 6.35 µM and 16.9 µM in [4]; 50 µM in assay [5]; 50 µM and 24.5 µM in assay [6]; 12.6 µM and 51.9 µM in [7]. In addition, the TGI in assay [8] was 50 µM and 29.3 µM; in [9] it was 9.59 µM and 13.2 µM.
In the case of `Nc1c(C(=O)Nc2cccc3ccccc23)sc2nc3c(cc12)CCCCC3`, the GI50 is 0.998 µM in assay [1]; 0.542 µM in [2]; 1.07 µM in [3]; 1.33 µM in assay [4]; 43.4 µM in assay [10]; 0.418 µM in assay [5]. Also, the GI50 is 0.443 µM in assay [6], 0.76 µM in assay [7] and 0.992 µM in assay [8]. The TGI in assay [1], in assay [2], in assay [3], in [4], in [10] and in [5] was greater than 50 µM in each case. The TGI in [6], in assay [7] and in [8] was greater than 50 µM throughout.
For `C=C1C(=O)O[C@H]2[C@H]1CC/C(COC(=O)NCCc1c[nH]c3ccccc13)=C\CC[C@@]1(C)O[C@@H]21`, the GI50 is 4.88 µM in assay [1]; 1.04 µM in [2]; 3.05 µM in assay [3]; 3.82 µM in assay [4]; 1.92 µM in assay [10]; 1.91 µM in assay [5]. The GI50 was 1.17 µM in assay [6], 5.41 µM in assay [7] and 1.16 µM in assay [8]. In addition, the TGI in assay [1] amounted to 17.1 µM; in [2], 2.31 µM; in [3], 13 µM; in assay [4] it was 16.3 µM; in assay [10] it was 3.55 µM; in assay [5], 6.59 µM. Besides, the TGI worked out at 2.81 µM in assay [6], 21.4 µM in assay [7] and 2.56 µM in assay [8].
For `COc1cc(/C=C/C(=O)CC(=O)/C=C/c2ccc(OC(=O)CCNC34CC5CC(CC(C5)C3)C4)c(OC)c2)ccc1OC(=O)CCNC12CC3CC(CC(C3)C1)C2`, the GI50 is 3.39 µM in assay [1]; 4.09 µM in assay [2]; 4.13 µM in assay [3]; 2.5 µM in [4]; 7.09 µM in [10]; 3.08 µM in [5]. Moreover, the GI50 was 3.2 µM in assay [6], 2.95 µM in assay [7] and 2.51 µM in assay [9]. Also, the TGI in [1] came to 12 µM; in [2] it was 21.9 µM; in assay [3] it was 21.1 µM; in assay [4], 6.33 µM; in assay [10], 22.6 µM; in assay [5] it was 16.2 µM. Further, the figures for the TGI in assay [6], in assay [7] and in assay [9] were 21.3 µM, 7.8 µM and 9.33 µM, respectively.
Turning to `O=C(/C=C/c1ccc2c(c1)OCO2)c1ccccc1`, the GI50 in assay [1] was 5.62 µM; in assay [2], 4.71 µM; in assay [3], 22.5 µM; in [4] it was 13.9 µM; in assay [5], 8.09 µM; in assay [6], 14.8 µM. Further, the GI50 was 3.02 µM in assay [7], 14.3 µM in [8] and 6.9 µM in assay [9]. Moreover, the TGI is 19 µM in assay [1]; 17.9 µM in assay [2]; 58.4 µM in assay [3]; 37.5 µM in [4]; greater than 100 µM in assay [5]; 31 µM in assay [6]. The figures for the TGI in [7], in assay [8] and in assay [9] were 14 µM, 28.7 µM and 23 µM, respectively.
Regarding `CCOC(=O)c1ccc(C(O)CC(=O)OC(C)(C)C)[nH]1` (stereo unspecified), the GI50 was 39.5 µM in assay [1]; 28.5 µM in [2]; 21.3 µM in [3]; 35.9 µM in assay [4]; 58.4 µM in assay [10]; 17.2 µM in assay [5]. Moreover, the GI50 in [6] was 23.9 µM; in [7], 24 µM; in [9], 21.6 µM. Moreover, the TGI in assay [1] is greater than 100 µM; in assay [2], 68.2 µM; in assay [3], 62 µM; in assay [4], greater than 100 µM; in assay [10] it was greater than 100 µM; in [5] it was greater than 100 µM. The values for the TGI in assay [6], in assay [7] and in [9] were 83.3 µM, 61.4 µM and 87.2 µM, respectively.
With `N#C/C(=C\c1ccc(Cl)cc1)n1nnc2cc(F)c(F)cc21`, the GI50 was 1.62 µM in assay [1]; 1.71 µM in assay [2]; 1.61 µM in assay [3]; 2.17 µM in [4]; 2.65 µM in [5]; 1.69 µM in assay [6]. For the same molecule, the values for the GI50 in assay [7], in assay [8] and in [9] were 1.95 µM, 1.46 µM and 1.7 µM, respectively. Besides, the TGI is 3.06 µM in assay [1]; 3.22 µM in assay [2]; 3.53 µM in assay [3]; 4.86 µM in [4]; greater than 100 µM in [5]; 3.28 µM in [6]. Further, the TGI in assay [7] amounted to 4.29 µM; in assay [8] it was 3.11 µM; in assay [9], 3.2 µM.
As for `Cc1cccc(Oc2ccc(Nc3ncnc4ccc(NC(=O)CN5CCN(C)CC5)cc34)cc2Cl)c1`, the GI50 in [2] was 1.42 µM; in assay [3], 1.78 µM; in assay [4], 1.75 µM; in assay [10], 0.701 µM; in [6], 1.59 µM; in [7], 1.74 µM. Besides, the values for the GI50 in assay [8] and in [9] were 1.61 µM and 1.19 µM, respectively. The TGI came out at 2.99 µM in assay [2]; 3.52 µM in [3]; 3.28 µM in [4]; 2.24 µM in assay [10]; 2.99 µM in [6]; 3.24 µM in assay [7]. In addition, the TGI in assay [8] is 3.09 µM; in assay [9] it was 2.66 µM.
As to `CCC(=O)Nc1ccc2c(c1)CN1C(=O)c3ccccc3C1=N2`, the GI50 in [1], in assay [2], in assay [3], in assay [4], in assay [10] and in [5] was greater than 100 µM each time. For the same molecule, the GI50 in assay [6], in assay [7] and in [9] was greater than 100 µM each time. Besides, the TGI in assay [1], in assay [2], in [3], in assay [4], in [10] and in [5] was greater than 100 µM throughout. Moreover, the TGI in [6], in [7] and in assay [9] was greater than 100 µM throughout.

(Values after PubChem BioAssay (NCI).)
